The values below come from patent US20160074401A1, “COMPOSITIONS AND METHODS UTILIZING PHOSPHODIESTERASE INHIBITORS TO TREAT BLAST-INDUCED TINNITUS AND/OR HEARING LOSS” (WAYNE STATE UNIVERSITY, priority 2013, published 2016).

Data set [1] has as its system focal cerebral cryolesion. As to conditions: treatment following cryolesion; cited from earlier work.
In data set [2] the test system is Neurospheres isolated from the subventricular zone of adult rat brains. Particulars: neurospheres treated with sildenafil; cited from earlier work.
For data set [3] the following is noted: upon oral intake; cited from earlier work.
For data set [4], the system named is blast-exposed Sprague Dawley rats (blast-induced tinnitus). Briefly: Gap-detection testing (acoustic startle) for blast-induced tinnitus.
Description: Thirty adult Sprague Dawley rats (110 days old, 250-300 g) were purchased from Charles River Laboratories (Wilmington, Mass.).
Animals underwent 8 rounds of behavior testing to stabilize baseline Gap-detection and PPI performance prior to blast or sham-blast exposure. […] Briefly, each rat was placed in a custom-built polycarbonate restrainer (FIG. 1) and set inside a lit startle monitor cabinet equipped with two ceiling speakers for background sound/prepulses and startle stimuli. Restrainers were mounted on top of a platform connected to a piezoelectric transducer, which measured downward startle force. Acoustic stimuli and startle force were calibrated using a Newton impulse calibrator (Kinder Scientific) and a microphone (Model 4016; ACO Pacific, Belmont, Calif.).
During the Gap-detection procedure, rats were exposed to constant 60 dB sound pressure level (SPL) background noise consisting of 2 kHz bandpass signals from 2-4 kHz, 6-8 kHz, 8-10 kHz, 10-12 kHz, 14-16 kHz, 18-20 kHz, or 26-28 kHz, or BBN (2-30 kHz). They were subjected to either a 50 ms white noise burst startle stimulus (startle only; dominating plateau from 3-37 kHz with energy up to 97.5 kHz) presented at 115 dB or the startle stimulus preceded by a 40 ms silent period beginning 90 ms before the startle stimulus (Gap). For each testing session, rats were presented 8 times with the startle only and Gap conditions for each frequency bandpass signal and BBN. The PPI procedure was identical to the Gap-detection procedure except that no background sound was presented. Rats were subjected to either the startle stimulus alone (startle only) or the startle stimulus preceded by a 40 ms prepulse beginning 90 ms before the startle stimulus. Prepulses (60 dB, SPL) consisted of the same frequencies as those used for background noise.
A two-minute acclimatization period was given at the beginning of each session, followed by two startle stimuli presented without background sound to trigger any initial, exaggerated startle reflexes. Gap-detection and PPI testing sessions lasted a little over thirty minutes each. […]
The test system of data set [5] is blast-exposed Sprague Dawley rats (wave 1 amplitude). Put plainly: ABR wave 1 (P1N1) amplitude after blast exposure. It is filed as in vivo, rat. Particulars: 28 kHz. As to the method: ABRs were recorded to evaluate hearing thresholds. Each rat was anesthetized using a mixture of air (0.41/min) and isoflurane (2-3%, v/v) and placed in a prone position with its head fixed to a stereotaxic frame. Body temperature was maintained using a warming blanket connected to a thermostatic controller (Harvard Instruments, Holliston, Mass.). Acoustic stimuli consisted of 0.1 ms clicks or 10 ms pure-tone bursts presented at 4, 8, 12, 16, 20, or 28 kHz and delivered through a speaker tube inserted into the external auditory canal. Three subcutaneous platinum-coated tungsten electrodes were used to record ABR waveforms, with the reference electrode inserted below the pinna ipsilateral to the speaker tube, the grounding electrode inserted below the contralateral pinna, and the recording electrode inserted at the vertex. […] Data were recorded using BioSigRP® and SigGenRP® software (TDT, Alachua, Fla.) installed on an IBM computer connected to System 3 TDT workstation.
There is a significant reduction in wave 1 amplitudes in human subjects suffering from tinnitus despite a seemingly normal audiogram. In order to assess the possibility of underlying wave 1 amplitude reduction despite recovery of ABR thresholds, wave 1 amplitudes for 28 kHz frequency were measured at pre-blast and at 6 weeks post-blast and compared between the Treated and Untreated groups (FIGS. 7A and 7B). […]

The test system of data set [6] is rats exposed to embolic stroke. Particulars: sildenafil treated rats; cited from earlier work.

Some results are limits rather than exact numbers.

Broadly, the Tmax is the time at which the peak concentration occurs.

On to `CCCOc1ccccc1-c1nc2nn[nH]c2c(=O)[nH]1` [Zaprinast], for which, in data set [1], the “Effects after focal cerebral cryolesion” value is “improved functional recovery, reduced oxidative stress, and prevention of apoptotic cell death”.
On to `CCCc1nn(C)c2c(=O)[nH]c(-c3cc(S(=O)(=O)N4CCN(C)CC4)ccc3OCC)nc12` [sildenafil, 1-[4-ethoxy-3-(6,7-dihydro-1-methyl-7-oxo-3-propyl-1H-pyrazolo[4,3-d]pyrimidin-5-yl)phenylsulfonyl]-4-methylpiperazine], for which the cGMP concentration entry in data set [2] was “increased cGMP concentration”. Also, in data set [3], the Tmax was at most 11 min. Also, in data set [4] (Sham group: sildenafil 10 mg/kg, no blast exposure, throughout the study), the “Gap-detection in Sham group (drug, no blast): tinnitus symptoms produced by the drug” value is “the drug itself did not produce tinnitus symptoms”. In addition, in data set [4] (high-frequency (26-28 kHz) tinnitus, reemerged afterwards), the “Effect on high-frequency tinnitus (overall)” value is reported as “suppressed high-frequency tinnitus from 3-6 weeks post-blast”. In addition, in data set [4] (sildenafil 10 mg/kg oral gavage, two 7-day rounds), the “Duration of therapeutic effect on blast-induced tinnitus (Gap-detection)” value was “maintained up to week 6”. Also, the “Wave 1 (P1N1) amplitude, Treated vs Untreated” value in data set [5] (exposed ear, 6 weeks post-blast) is reported as “no significant differences between the two groups at time-matched points”. Further, the “Decrease of wave 1 amplitude” value in data set [5] (6 weeks after triple blast exposure, Treated group (same in Untreated)) stood at 45%. In data set [6], the “Effects after embolic stroke” value is “improvement in angiogenesis, selective increase in cerebral blood flow, and enhanced neurological functional recovery up to 6 weeks post-injury”.
